Measurements published in patent publication US20240293392A1, “INHIBITOR COMPOUNDS” (NeoPhore Limited, priority 2021, published 2024).

Assays:
[1] = target: T1, recombinant N-terminal MLH1 (residues 15-340) (Homo sapiens, UniProt P40692); assay: Fluorescence Polarisation Assay for MLH1; assay type: binding; conditions: fluorescence polarisation probe displacement; 100 nM N-terminal MLH1, 5 nM probe compound
T1 construct: recombinant N-terminal MLH1 (residues 15-340)
T1 sequence (P40692 15-340): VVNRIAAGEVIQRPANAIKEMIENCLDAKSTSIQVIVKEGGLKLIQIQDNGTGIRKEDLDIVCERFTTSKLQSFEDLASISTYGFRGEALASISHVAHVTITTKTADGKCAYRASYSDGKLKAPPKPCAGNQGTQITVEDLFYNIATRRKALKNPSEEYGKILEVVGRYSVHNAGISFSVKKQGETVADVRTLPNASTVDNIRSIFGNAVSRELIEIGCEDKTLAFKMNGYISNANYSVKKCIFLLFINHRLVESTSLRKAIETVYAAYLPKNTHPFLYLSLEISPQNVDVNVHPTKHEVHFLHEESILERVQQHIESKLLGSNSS
Description: Fluorescence Polarisation Assay for MLH1
Test compounds, as 10 mM DMSO stocks, were dispensed into a 384-well Low Flange Black Flat Bottom Polystyrene Non-binding Surface plate (Corning®, item number 3575) using a Labcyte Echo acoustic liquid handler. Test compounds were added to wells in columns 1-22 whilst DMSO was added to wells in columns 23 and 24 in order to normalise the plate. 20 μL of a 2× solution (200 nM) of recombinant N-terminal MLH1 (residues 15-340) in assay buffer (25 mM HEPES, pH 7.5, 250 mM NaCl, 10 mM MgCl2, 0.01% Triton X-100, 5 mM dithiothreitol) was added to all wells in columns 1-23 and 20 μL assay buffer was added to all wells in column 24 using an E1-ClipTip pipette (ThermoFisher). Plates were centrifuged for 1 minute at 250×g and were incubated at room temperature for 30 minutes prior to the addition of 20 μL of 2× (10 nM) 5-((5-(4-((2-(2,4-dihydroxy-5-isopropylbenzoyl)isoindolin-5-yl)methyl)piperazin-1-yl)pentyl)carbamoyl)-2-(6-(dimethylamino)-3-(dimethyliminio)-3H-xanthen-9-yl)benzoate in assay buffer (prepared from a 1 mM DMSO stock) with an E1-ClipTip pipette (ThermoFisher). The final concentration of N-terminal MLH1 was 100 nM and the final concentration of the probe compound was 5 nM. Compound plates were centrifuged for 1 minute at 250×g for 1 minute and immediately read on a PheraStar FSX (fitted with 384-well aperture spoon and 590 675 675 FP optic module). The gain and focus were adjusted before each plate was read so that the polarisation of a no enzyme control (column 24) was equal to 35 mP. Data were normalised against the no inhibitor controls (column 23) and no enzyme controls (column 24).

[2] = target: T2, recombinant N-terminal PMS2 (residues 1-365) (Homo sapiens, UniProt P54278); assay: Fluorescence Polarisation Assay for PMS2; assay type: binding; conditions: fluorescence polarisation probe displacement; 10 nM N-terminal PMS2, 5 nM probe compound; read-out: PMS2 IC50
T2 construct: recombinant N-terminal PMS2 (residues 1-365)
T2 sequence (P54278 1-365): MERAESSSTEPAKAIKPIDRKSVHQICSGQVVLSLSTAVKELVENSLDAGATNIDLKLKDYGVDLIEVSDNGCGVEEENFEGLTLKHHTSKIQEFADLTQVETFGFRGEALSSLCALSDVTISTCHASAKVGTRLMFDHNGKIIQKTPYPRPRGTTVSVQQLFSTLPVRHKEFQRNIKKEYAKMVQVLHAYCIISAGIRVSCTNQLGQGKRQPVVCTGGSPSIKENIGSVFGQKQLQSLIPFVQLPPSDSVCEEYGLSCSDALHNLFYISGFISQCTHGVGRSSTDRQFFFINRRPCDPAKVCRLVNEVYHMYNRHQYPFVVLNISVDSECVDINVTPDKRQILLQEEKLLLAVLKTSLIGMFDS
Description: Fluorescence Polarisation Assay for PMS2
For single point screening, test compounds were added to wells in columns 1-22 whilst DMSO was added to wells in columns 23 and 24 in order to normalise the plate. For potency determination, serial dilutions of test compounds were added to wells in columns 3-22 and DMSO volume was normalised across the plate.
20 μL assay buffer was added to all wells in columns 1 and 24 (column 24 only for single point screening) using a MultiDrop Combi (ThermoFisher). Plates were centrifuged for 1 minute at 250×g and were incubated at room temperature for 30 minutes prior to the addition of 20 μL of 2× (20 nM) of 5-((5-(4-((2-(2,4-dihydroxy-5-isopropylbenzoyl)isoindolin-5-yl)methyl)piperazin-1-yl)pentyl)carbamoyl)-2-(6-(dimethylamino)-3-(dimethyliminio)-3H-xanthen-9-yl)benzoate (referred to hereinafter as “probe compound”) in assay buffer (prepared from a 100 μM DMSO stock) with a MultiDrop Combi (ThermoFisher). The final concentration of N-terminal PMS2 was 10 nM and the final concentration of probe compound was 5 nM.
Compound plates were centrifuged for 1 minute at 250×g for 1 minute and were incubated at room temperature for 1 hour before being read on a PheraStar FSX (fitted with 384-well aperture spoon and 540 590 590 FP optic module). The gain and focus were adjusted before each plate was read so that the polarisation of a no enzyme control (column 24) was equal to 35 mP. Data were normalised against the no inhibitor controls (column 23) and no enzyme controls (column 24).

Row | Compound | IC50 [1] [nM] | IC50 [2] [nM]
1 | O=C(c1c(O)cc(O)cc1OCc1ccccc1)N1CCc2ncnc(N[C@H]3CCOC3)c2C1 [Example 115, (S)-(2-(Benzyloxy)-4,6-dihydroxyphenyl)(4-((tetrahydrofuran-3-yl)amino)-7,8-dihydropyrido[4,3-d]pyrimidin-6(5H)-yl)methanone] | 1000 to 10000 | 1000 to 10000
2 | O=C(c1c(O)cc(O)cc1OCc1ccccc1)N1CCc2cccc(N[C@H]3CCOC3)c2C1 [Example 2, (S)-(2-(Benzyloxy)-4,6-dihydroxyphenyl)(8-((tetrahydrofuran-3-yl)amino)-3,4-dihydro-isoquinolin-2(1H)-yl)methanone] | < 1000 | 1000 to 10000
3 | CNC(=O)c1ccc2c(c1)CN(C(=O)c1c(O)cc(O)cc1OCc1ccccc1)C2 [Example 86, 2-(2-(Benzyloxy)-4,6-dihydroxybenzoyl)-N-methylisoindoline-5-carboxamide] | < 1000 | < 1000
4 | O=C(c1c(O)cc(O)cc1OCc1ccccc1)N1Cc2cccc(N[C@H]3CCOC3)c2C1 [Example 22, (S)-(2-(Benzyloxy)-4,6-dihydroxyphenyl)(4-((tetrahydrofuran-3-yl)amino)isoindolin-2-yl)methanone] | < 1000 | < 1000
5 | CN1CCC(Nc2cccc3c2CN(C(=O)c2c(O)cc(O)cc2OCc2ccccc2)CC3)CC1 [Example 77, (2-(Benzyloxy)-4,6-dihydroxyphenyl)(8-((1-methylpiperidin-4-yl)amino)-3,4-dihydroisoquinolin-2(1H)-yl)methanone] | > 10000 | > 10000
6 | CNc1cc(OCCOC)cc2c1CN(C(=O)c1c(O)cc(O)cc1OCc1ccccc1)CC2 [Example 128, (2-(Benzyloxy)-4,6-dihydroxyphenyl)(6-(2-methoxyethoxy)-8-(methylamino)-3,4-dihydroisoquinolin-2(1H)-yl)methanone] | 1000 to 10000 | 1000 to 10000
7 | O=C(c1c(O)cc(O)cc1OCc1ccccc1)N1Cc2cccc(N3CCCC(O)C3)c2C1 (stereo not shown) [Example 8, (2-(Benzyloxy)-4,6-dihydroxyphenyl)(4-(3-hydroxypiperidin-1-yl)isoindolin-2-yl)methanone] | 1000 to 10000 | 1000 to 10000
8 | COCCCC(=O)N1CC[C@H](N(C)c2cccc3c2CN(C(=O)c2c(O)cc(O)cc2OCc2ccccc2)CC3)C1 [Example 150, (S)-1-(3-((2-(2-(Benzyloxy)-4,6-dihydroxybenzoyl)-1,2,3,4-tetrahydroisoquinolin-8-yl) (methyl)amino)pyrrolidin-1-yl)-4-methoxybutan-1-one] | 1000 to 10000 | > 10000
9 | CC(=O)NCc1cccc2c1CN(C(=O)c1c(O)cc(O)cc1OCc1ccccc1)C2 [Example 95, N-((2-(2-(Benzyloxy)-4,6-dihydroxybenzoyl)isoindolin-4-yl)methyl)acetamide] | 1000 to 10000 | 1000 to 10000
10 | CN1CC(Nc2cccc3c2CN(C(=O)c2c(O)cc(O)cc2OCc2ccccc2)CC3)CC1=O (single isomer, unassigned) [Example 61, 4-((2-(2-(Benzyloxy)-4,6-dihydroxybenzoyl)-1,2,3,4-tetrahydroisoquinolin-8-yl)amino)-1-methylpyrrolidin-2-one] | < 1000 | > 10000
11 | O=C(c1c(O)cc(O)cc1OCc1ccccc1)N1CCc2cccc(N[C@@H]3CCOC3)c2C1 [Example 1, (R)-(2-(Benzyloxy)-4,6-dihydroxyphenyl)(8-((tetrahydrofuran-3-yl)amino)-3,4-dihydro-isoquinolin-2(1H)-yl)methanone] | < 1000 | > 10000

Now from value to compound:

Row | IC50 [1] [nM] | IC50 [2] [nM] | Compound
12 | 1000 to 10000 | < 1000 | O=C(c1c(O)cc(O)cc1OCC1CCCCC1)N1CCc2cccc(N[C@H]3CCOC3)c2C1 [Example 140, (S)-(2-(Cyclohexylmethoxy)-4,6-dihydroxyphenyl)(8-((tetrahydrofuran-3-yl)amino)-3,4-dihydroisoquinolin-2(1H)-yl)methanone]
13 | < 1000 | < 1000 | Cc1cccc(COc2cc(O)cc(O)c2C(=O)N2CCc3cccc(N[C@H]4CCOC4)c3C2)c1 [Example 124, (S)-(2,4-Dihydroxy-6-((3-methylbenzyl)oxy)phenyl)(8-((tetrahydrofuran-3-yl)amino)-3,4-dihydroisoquinolin-2(1H)-yl)methanone]
14 | < 1000 | 1000 to 10000 | O=C(c1c(O)cc(O)cc1OCc1ccccc1)N1Cc2cccc(NC3COC3)c2C1 [Example 7, (2-(Benzyloxy)-4,6-dihydroxyphenyl)(4-(oxetan-3-ylamino)isoindolin-2-yl)methanone]
15 | < 1000 | > 10000 | COCCOc1cc2c(c(N[C@@H]3CCOC3)c1)CN(C(=O)c1c(O)cc(O)cc1OCc1ccccc1)CC2 [Example 60, (R)-(2-(Benzyloxy)-4,6-dihydroxyphenyl)(6-(2-methoxyethoxy)-8-((tetrahydrofuran-3-yl)amino)-3,4-dihydroisoquinolin-2(1H)-yl)methanone]
16 | 1000 to 10000 | 1000 to 10000 | O=C(c1c(O)cc(O)cc1OCc1ccccc1)N1Cc2cccc(CNC3COC3)c2C1 [Example 81, (2-(Benzyloxy)-4,6-dihydroxyphenyl)(4-((oxetan-3-ylamino)methyl)isoindolin-2-yl)methanone]
17 | < 1000 | 1000 to 10000 | O=C(c1c(O)cc(O)cc1OCc1ccccc1)N1CCc2cccc(Nc3ccnnc3)c2C1 [Example 120, (2-(Benzyloxy)-4,6-dihydroxyphenyl)(8-(pyridazin-4-ylamino)-3,4-dihydroisoquinolin-2(1H)-yl)methanone]
18 | < 1000 | > 10000 | CC(=O)N1CC[C@@H](Nc2cccc3c2CN(C(=O)c2c(O)cc(O)cc2OCc2ccccc2)CC3)C1 [Example 66, (R)-1-(3-((2-(2-(Benzyloxy)-4,6-dihydroxybenzoyl)-1,2,3,4-tetrahydroisoquinolin-8-yl)amino)pyrrolidin-1-yl)ethan-1-one]
19 | < 1000 | > 10000 | O=C(c1c(O)cc(O)cc1OCc1cccnc1)N1Cc2cccc(NC3CCOC3)c2C1 (stereo not shown) [Example 96, (2,4-dihydroxy-6-(pyridin-3-ylmethoxy)phenyl)(4-((tetrahydrofuran-3-yl)amino)isoindolin-2-yl)methanone]
20 | 1000 to 10000 | 1000 to 10000 | CN(C)Cc1ccc2c(c1)CN(C(=O)c1c(O)cc(O)cc1OCc1ccccc1)CC2 [Example 47, (2-Benzyloxy-4,6-dihydroxy-phenyl)-[7-[(dimethylamino)methyl]-3,4-dihydro-1H-isoquinolin-2-yl]methanone]
